Source: paper PMC6585632 (Clinical Pharmacology in Drug Development, 2018)
Values joined by “and” are separate entries in the source; they are usually repeats but may differ in a detail not shown here. Equal entries are not always repeated. “Also recorded” adds a separate entry of the source. Where two headings read alike, the source gives them in different places. Marks after values point to notes of the source that are not given here.

Experiments:
[1] = incubation with human liver microsomes; ref Clovis Oncology, Inc., data on file; cited from earlier work
[2] = Dose proportionality at steady state; type: in vivo, human; conditions: 40–500 mg QD and 240–840 mg BID
[3] = normal metabolizers vs hyperinducers; cited from earlier work
[4] = type: in vivo, human; conditions: for Steady state reached by: plasma trough concentrations; for Arithmetic Mean CLss/F (CV%): day 15 steady state
human hepatocytes = conditions: incubation with human hepatocytes; ref Clovis Oncology, Inc., data on file; cited from earlier work
[5] = Safety: treatment-emergent adverse events; type: in vivo, human
[6] = tested on: Recombinant human cytochrome P450 (CYP) 2D6; conditions: recombinant human CYP2D6; ref Clovis Oncology, Inc., data on file; cited from earlier work
[7] = Effect of a high-fat meal on single-dose pharmacokinetics; type: in vivo, human; conditions: for AUC / Cmax / half-life / Tmax: human, plasma, oral; for AUC: AUC0‐24h
[8] = Steady-state pharmacokinetics in food effect cohorts; type: in vivo, human; conditions: for Tmax / Cmax / AUC / half-life: human, plasma, oral; for Cmax / AUC / half-life: cycle 1 day 15 steady state; for AUC: AUC0‐t
[9] = Part 3, 600 mg BID (n = 26), Grade 5
[10] = Part 3, single dose 600 mg, fasted
[11] = Part 3, single dose 600 mg, fed
[12] = Part 3, single dose 600 mg, high‐fat meal
[13] = 40 mg, arithmetic mean, Part 1, single dose 40 mg, cycle 1 day –7 fasted, n 3
[14] = 40 mg, median, Part 1, single dose 40 mg, cycle 1 day –7 fasted, n 3
[15] = 40 mg, median, Part 1, single dose 40 mg, cycle 1 day 1 fed (high-fat meal), n 3

CNCc1ccc(-c2[nH]c3cc(F)cc4c3c2CCNC4=O)cc1 [rucaparib]
metabolic turnover rate [1]: slow metabolic turnover rates | dose proportionality of plasma exposure [2]: approximately dose proportional | effect of CYP1A2 polymorphisms on pharmacokinetics [3]: no apparent effect | steady‐state accumulation ratio (Rac_AUC0‐12h), range over cohorts ([4]; BID dosing 240‐840 mg): 1.47 to 5.44 | Estimated mean CLss/F, range over cohorts ([4]; BID dosing schedule): 26.2 to 58.6 L/h | Steady state reached by ([4]; BID dosing schedule): ≤ 8 cycle 1 day | Arithmetic Mean CLss/F (CV%) ([4]; Part 1, 40 mg QD oral): 26.7 (59) L/h | Arithmetic Mean CLss/F (CV%) ([4]; Part 1, 80 mg QD oral): 47.5 (23) L/h | Arithmetic Mean CLss/F (CV%) ([4]; Part 1, 160 mg QD oral, n = 3): 41.6 (29) ^b L/h | Arithmetic Mean CLss/F (CV%) ([4]; Part 1, 240 mg BID oral, n = 2): 27.3 ^a L/h | Arithmetic Mean CLss/F (CV%) ([4]; Part 1, 300 mg QD oral): 46.7 (63) L/h | Arithmetic Mean CLss/F (CV%) ([4]; Part 1, 360 mg BID oral, n = 2): 40.4 ^a L/h | Arithmetic Mean CLss/F (CV%) ([4]; Part 1, 480 mg BID oral, n = 6): 26.2 (63) ^d L/h | Arithmetic Mean CLss/F (CV%) ([4]; Part 1, 500 mg QD oral): 27.8 (35) L/h | Arithmetic Mean CLss/F (CV%) ([4]; Part 1, 600 mg BID oral, n = 4): 58.6 (123) ^g L/h | Arithmetic Mean CLss/F (CV%) ([4]; Part 1, 840 mg BID oral, n = 1): 29 ^c L/h | Rac_Cmax at steady state, range over cohorts ([4]; Part 1 BID cohorts): 2.6 to 4.9 | Rac_Cmax at steady state, range over cohorts ([4]; Part 1 QD cohorts): 1.06 to 1.8 | steady‐state accumulation ratio (Rac_AUC0‐24h), range over cohorts ([4]; QD dosing 40‐500 mg): 1.60 to 2.33 and 1.6 to 2.33 | Estimated mean CLss/F, range over cohorts ([4]; QD dosing schedule): 26.7 to 47.5 L/h | Steady state reached by ([4]; QD dosing schedule): ≤ 8 cycle 1 day | CLss as share of the normal liver blood flow rate (1450 mL/min) ([4]; at tested oral dose levels): ≤ 24% | CLss, estimated from CLss/F and oral bioavailability of 36% ([4]; at tested oral dose levels): ≤ 350 mL/min | Cmax ([4]; human, plasma, oral, 500 mg, mean Cmax, range over cohorts, Part 1 QD cohorts 40‐500 mg, cycle 1 day 1 single dose): 114 to 949 ng/mL | Tmax ([4]; human, plasma, oral, Median tmax, range over cohorts, Part 1 QD cohorts): 1.5 to 4 h | Tmax ([4]; human, plasma, oral, cohort median tmax, range, across all doses and tablet strengths tested (Parts 1 and 3)): 1.5 to 6 h | Tmax ([4]; human, plasma, po, 360 mg, Median tmax (range), Part 1, 360 mg BID oral, day 1): 3.23 h | metabolic turnover rate (human hepatocytes): slow metabolic turnover rates | deaths due to disease progression ([5]; Part 1): Three | treatment‐related deaths ([5]; Part 1): No treatment‐related deaths | treatment‐related deaths ([5]; Part 3, 600 mg BID): No treatment‐related deaths | Dyspnea [5, 9]: 1 (3.8%) n (%) | Pulmonary embolism [5, 9]: 1 (3.8%) n (%) | metabolism by recombinant enzyme [6]: able to metabolize rucaparib | effect of food (high‐fat meal) on rucaparib pharmacokinetics ([7]; Part 1, single dose of 40 mg (n = 3) or 300 mg (n = 6)): No effect of food; also recorded: Minimal food effect | median tmax delay by a high‐fat meal ([7]; Part 3, single dose 600 mg): 2.5 h | intersubject variability (CV%) of the geometric mean AUC0‐24h [7, 10]: 84.6% | intersubject variability (CV%) of the geometric mean Cmax [7, 10]: 87.5% | intersubject variability (CV%) of the geometric mean AUC0‐24h [7, 11]: 86.8% | intersubject variability (CV%) of the geometric mean Cmax [7, 11]: 82.8% | fed‐to‐fasted geometric mean ratio (90%CI) for AUC0‐24h [7, 12]: 138% | fed‐to‐fasted geometric mean ratio (90%CI) for Cmax [7, 12]: 120% | AUC ([7]; 40 mg, arithmetic mean, Part 1, single dose 40 mg, cycle 1 day 1 fed (high-fat meal), n 2): 794 ng·h/mL | AUC [7, 13]: 741 ng·h/mL | AUC ([7]; 40 mg, median, Part 1, single dose 40 mg, cycle 1 day 1 fed (high-fat meal), n 2): 794 ng·h/mL | AUC [7, 14]: 468 ng·h/mL | Cmax ([7]; 40 mg, arithmetic mean, Part 1, single dose 40 mg, cycle 1 day 1 fed (high-fat meal), n 3): 64.8 ng/mL | Cmax [7, 13]: 77.9 ng/mL | Cmax [7, 15]: 71.1 ng/mL | Cmax [7, 14]: 57.6 ng/mL | half-life ([7]; 40 mg, t1/2, arithmetic mean, Part 1, single dose 40 mg, cycle 1 day 1 fed (high-fat meal), n 3): 12.6 h | half-life ([7]; 40 mg, t1/2, arithmetic mean, Part 1, single dose 40 mg, cycle 1 day –7 fasted, n 3): 10.6 h | half-life ([7]; 40 mg, t1/2, median, Part 1, single dose 40 mg, cycle 1 day 1 fed (high-fat meal), n 3): 12.7 h | half-life ([7]; 40 mg, t1/2, median, Part 1, single dose 40 mg, cycle 1 day –7 fasted, n 3): 8.16 h | Tmax [7, 15]: 2.55 h | Tmax [7, 14]: 4 h | AUC ([7]; 300 mg, arithmetic mean, Part 1, single dose 300 mg, cycle 1 day 1 fed (high-fat meal), n 5): 6890 ng·h/mL | Mean (CV%) steady‐state CLss/F ([8]; continuous 600 mg BID, Part 3, CV 45%): 44.2 L/h | Tmax ([8]; 40 mg): 4 h | Cmax ([8]; 40 mg, arithmetic mean, Part 1 food effect cohort, 40 mg QD, n 3): 129 ng/mL | Cmax ([8]; 40 mg, median, Part 1 food effect cohort, 40 mg QD, n 3): 103 ng/mL | Tmax ([8]; 300 mg): 2.47 h | AUC ([8]; 300 mg, arithmetic mean, Part 1 food effect cohort, 300 mg QD, t = 24 hours, n 3): 13300 ng·h/mL | AUC ([8]; 300 mg, median, Part 1 food effect cohort, 300 mg QD, t = 24 hours, n 3): 5220 ng·h/mL | Cmax ([8]; 300 mg, arithmetic mean, Part 1 food effect cohort, 300 mg QD, n 5): 727 ng/mL | Cmax ([8]; 300 mg, median, Part 1 food effect cohort, 300 mg QD, n 5): 444 ng/mL | half-life ([8]; 300 mg, t1/2, arithmetic mean, Part 1 food effect cohort, 300 mg QD, n 3): 20 h | half-life ([8]; 300 mg, t1/2, median, Part 1 food effect cohort, 300 mg QD, n 3): 27.5 h | Tmax ([8]; 600 mg): 1.92 h | AUC ([8]; 600 mg, arithmetic mean, Part 3, 600 mg BID, t = 10 hours, n 18): 15800 ng·h/mL | AUC ([8]; 600 mg, median, Part 3, 600 mg BID, t = 10 hours, n 18): 12900 ng·h/mL | Cmax ([8]; 600 mg, arithmetic mean, Part 3, 600 mg BID, n 18): 1940 ng/mL | Cmax ([8]; 600 mg, median, Part 3, 600 mg BID, n 18): 1480 ng/mL
